Experimental data taken from patent publication US11331327B2, “Antibacterial use of halogenated salicylanilides” (UNION therapeutics A/S, priority 2014, dated 2022).
Marks after values point to notes of the source that are not given here.

Tested on: MRSA 01, MRSA 15, MRSA 16
Assay: Mutational frequency evaluation, Example 1
Format: cell-based, Staphylococcus aureus
Conditions: for Resistance mutation rate at MIC × 1: tested against one strain: MRSA 01
Experimental: Adequate dilutions were plated on plates without the compound.
Viable cell growth was enumerated after 48 hours of incubation at 37° C.
Ten replicates were carried out for each strain and fusidic acid, mupirocin and retapamulin were used as controls for the MRSA 01 strain.

Structure (SMILES) | Resistance mutation rate at MIC × 1 | mutational frequency at MIC×1 (text summary of Table 4)
CC(=O)O[C@H]1C[C@@]2(C)[C@@H](C[C@@H](O)[C@H]3[C@@]4(C)CC[C@@H](O)[C@@H](C)[C@@H]4CC[C@@]32C)/C1=C(\CCC=C(C)C)C(=O)O [Fusidic acid] | ≥4 × 10^−5* | 
C/C(=C\C(=O)OCCCCCCCCC(=O)O)C[C@@H]1OC[C@H](C[C@@H]2O[C@H]2[C@@H](C)[C@H](C)O)[C@@H](O)[C@H]1O [Mupirocin] | ≥4 × 10^−5* | 
O=C(Nc1ccc([N+](=O)[O-])cc1Cl)c1cc(Cl)ccc1O [Niclosamide, 5-chloro-N-(2-chloro-4-nitrophenyl)-2-hydroxybenz-amide] |  | < 4×10^−10
C=C[C@]1(C)C[C@@H](OC(=O)CS[C@@H]2C[C@H]3CC[C@@H](C2)N3C)[C@]2(C)[C@H](C)CC[C@]3(CCC(=O)[C@H]32)[C@@H](C)[C@@H]1O [Retapamulin] | ≥4 × 10^−5* | 
